28 compounds from US8802664B2 (Bioproject, priority 2010, dated 2014) can be followed below.

Some results are limits rather than exact numbers.

The assay has as its target T1, human H4 receptor (Homo sapiens, UniProt Q9H3N8).
T1 construct: expressed in transfected cells
Put plainly: [3H]Histamine binding on membranes of CHO cells stably expressing human H4 receptor. An outline of the steps: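 Filter-bound counts (liquid scintillation) gave H4 binding. Incubation used 20 μg membrane protein/well in Tris/HCl 50 mM plus EDTA 0.5 mM at pH 7.4, and 10 μM JNJ 7777120 set nonspecific binding. Filtration on GF/B pretreated with polyethyleneimine stopped the reaction.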

T1 sequence (Q9H3N8 whole entry): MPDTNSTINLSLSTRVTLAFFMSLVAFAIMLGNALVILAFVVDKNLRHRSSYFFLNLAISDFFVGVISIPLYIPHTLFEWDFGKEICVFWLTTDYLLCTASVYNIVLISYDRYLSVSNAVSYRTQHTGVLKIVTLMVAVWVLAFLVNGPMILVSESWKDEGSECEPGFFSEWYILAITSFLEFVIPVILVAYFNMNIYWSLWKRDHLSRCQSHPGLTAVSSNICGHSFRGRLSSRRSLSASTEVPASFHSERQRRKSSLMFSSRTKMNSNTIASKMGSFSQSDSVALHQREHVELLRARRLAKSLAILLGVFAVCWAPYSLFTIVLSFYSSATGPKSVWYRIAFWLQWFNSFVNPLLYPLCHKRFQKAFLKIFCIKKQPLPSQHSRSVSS

As to `CN1CCC(OC(c2cccc(C#N)c2)c2nc3ccccc3[nH]2)CC1` (stereo not shown) [Example 172, 3-[(1H-benzimidazol-2-yl)(1-methylpiperidin-4-yloxy)methyl]benzonitrile], the Ki or IC50 activity class is less than 300 nM. For the compound `CN1CCC(OC(c2cccc(SCC3(CCO)CC3)c2)c2nc3ccccc3s2)CC1` (stereo not shown) [Example 268, 2-(1-{3-[benzothiazol-2-yl(1-methylpiperidin-4-yloxy)methyl]phenylsulfanylmethyl}cyclopropyl)ethanol], the Ki or IC50 activity class is less than 300 nM. Next, `CN1CCC(OC(c2cccc(I)c2)c2nc3ccccc3s2)CC1` (single isomer, unassigned) [Example 117, 2-[(3-iodophenyl)(1-methylpiperidin-4-yloxy)methyl]benzothiazole]: less than 30 nM.

For the compound `CN1CCC(OC(c2cccc(CO)c2)c2nc3ccccc3s2)CC1` (stereo not shown) [Example 207, {3-[benzothiazol-2-yl(1-methylpiperidin-4-yloxy)methyl]phenyl}methanol], the Ki or IC50 activity class was less than 1000 nM.

Regarding `CN1CCC(COC(c2cccc(Br)c2)c2nc3cc(F)ccc3[nH]2)C1` (stereo not shown) [Example 449, 2-[(3-bromophenyl)(1-methylpyrrolidin-3-ylmethoxy)methyl]-5-fluoro-1H-benzimidazole], the Ki or IC50 activity class was less than 30 nM. Next, `CN1CCC(NC(c2cccc(OCCOc3ccccc3)c2)c2nc3ccccc3[nH]2)CC1` (stereo not shown) [Example 106, {(1H-benzimidazol-2-yl)[3-(2-phenoxyethoxy)phenyl]methyl}(1-methylpiperidin-4-yl)amine]: less than 300 nM; `CN1CCC(OC(c2cccc(OCc3ccncc3)c2)c2nc3ccccc3s2)CC1` (stereo not shown) [Example 265, 2-{(1-methylpiperidin-4-yloxy)[3-(pyridin-4-ylmethoxy)phenyl]methyl}benzothiazole]: less than 300 nM; `CN1CCC(OC(c2cccc(OCc3cc(F)ccc3F)c2)c2nc3ccccc3s2)CC1` (stereo not shown) [Example 156, 2-[[3-(2,5-difluorobenzyloxy)phenyl](1-methylpiperidin-4-yloxy)methyl]benzothiazole]: less than 30 nM. Next, `CN1CCC(OC(c2cccc(C=CCCCO)c2)c2nc3ccccc3s2)CC1` (stereo not shown) [Example 384, 5-{3-[benzothiazol-2-yl(1-methylpiperidin-4-yloxy)methyl]phenyl}pent-4-en-1-ol]: less than 300 nM. Next, `CSCCOc1cccc(C(OC2CCN(C)CC2)c2nc3ccccc3s2)c1` (stereo not shown) [Example 250, 2-{(1-methylpiperidin-4-yloxy)[3-(2-methylsulfanyl-ethoxy)phenyl]methyl}benzothiazole]: less than 300 nM. Consider `CSc1cccc(-c2cccc(C(OC3CCN(C)CC3)c3nc4ccccc4[nH]3)c2)c1` (stereo not shown) [Example 116, 2-[(1-methylpiperidin-4-yloxy)(3′-methylsulfanylbiphenyl-3-yl)methyl]-1H-benzimidazole], for which the Ki or IC50 activity class was less than 300 nM. Compound `CN1CCC(OC(c2nc3ccccc3[nH]2)c2cc(C#CCCCN)ccc2F)CC1` (stereo not shown) [Example 442] showed a Ki or IC50 activity class of less than 30 nM. Consider `CN1CCC(OC(c2nc3ccccc3[nH]2)c2cccs2)CC1` (stereo not shown) [Example 546], for which the Ki or IC50 activity class is less than 300 nM. The compound `CN1CCC(OC(c2cccc(SCc3ccco3)c2)c2nc3ccccc3[nH]2)CC1` (stereo not shown) [Example 173, 2-[[3-(furan-2-ylmethylsulfanyl)phenyl](1-methylpiperidin-4-yloxy)methyl]-1H-benzimidazole] registered a Ki or IC50 activity class of less than 300 nM. The figure for `COc1ccc(-c2cccc(C(OC3CCN(C)CC3)c3nc4ccccc4s3)c2)cc1` (stereo not shown) [Example 100, 2-[(4′-methoxybiphenyl-3-yl)(1-methylpiperidin-4-yloxy)methyl]benzothiazole] is less than 300 nM; for `CN1CCC(OC(c2cccc(CCCNC(=N)N)c2)c2nc3ccccc3[nH]2)CC1` (stereo not shown) [Example 320, N-(3-{3-[(1H-benzimidazol-2-yl)(1-methylpiperidin-4-yloxy)methyl]phenyl}propyl)guanidine] it is less than 30 nM; for `Cc1ccccc1COc1cccc(C(NC2CCN(C)CC2)c2nc3ccccc3[nH]2)c1` (stereo not shown) [Example 129, {(1H-benzimidazol-2-yl)[3-(2-methylbenzyloxy)phenyl]methyl}(1-methylpiperidin-4-yl)amine] it is less than 30 nM. Compound `CN1CCC(OC(c2cccc(OCCCCCN3CCN(C(=O)OC(C)(C)C)CC3)c2)c2nc3ccccc3[nH]2)CC1` (stereo not shown) [Example 391, 4-(5-{3-[(1H-benzimidazol-2-yl)(1-methylpiperidin-4-yloxy)methyl]phenoxy}pentyl)piperazine-1-carboxylic acid tert-butyl ester] yielded a Ki or IC50 activity class of less than 1000 nM.

The compound `CN1CCC(OC(c2ccccc2)c2nc3ccccc3s2)C1` (stereo not shown) [Example 2, 2-[(1-methylpyrrolidin-3-yloxy)phenyl-methyl]benzothiazole] showed a Ki or IC50 activity class of less than 1000 nM. The figure for `CN1CCC(OC(c2cccc(OCCC(F)(F)F)c2)c2nc3ccccc3s2)CC1` (stereo not shown) [Example 178, 2-{(1-methylpiperidin-4-yloxy)[3-(3,3,3-trifluoro-propoxy)phenyl]methyl}benzothiazole] is less than 300 nM. As for `COc1cccc(C(NC2CCN(C)CC2)c2nc3ccccc3s2)c1` (stereo not shown) [Example 25, [benzothiazol-2-yl(3-methoxyphenyl)methyl](1-methylpiperidin-4-yl)amine], the Ki or IC50 activity class is less than 30 nM.

`CN1CCC(NC(c2cccc(OCc3ccccc3)c2)c2nc3ccccc3s2)CC1` (stereo not shown) [Example 101, [benzothiazol-2-yl(3-benzyloxyphenyl)methyl](1-methylpiperidin-4-yl)amine]: the Ki or IC50 activity class was less than 30 nM. Take `CN1CCC(OC(c2cccc(-c3ccc(NC(=O)OC(C)(C)C)cc3)c2)c2nc3ccccc3s2)CC1` (stereo not shown) [Example 143, {3′-[benzothiazol-2-yl(1-methylpiperidin-4-yloxy)methyl]biphenyl-4-yl}carbamic acid tert-butyl ester]: the Ki or IC50 activity class was less than 300 nM.

Take `CN1CCC(OC(c2cccc(N3CC4CN(C)CC4C3)c2)c2nc3ccccc3s2)CC1` (stereo not shown) [Example 485]: the Ki or IC50 activity class was less than 1000 nM. Next, `CN1CCC(OC(c2cccc(C#CCNC(=N)NC(=O)OC(C)(C)C)c2)c2nc3ccccc3[nH]2)CC1` (stereo not shown) [Example 336, N-tert-butoxycarbonyl-N′-(3-{3-[(1H-benzimidazol-2-yl)(1-methylpiperidin-4-yloxy)methyl]phenyl}prop-2-ynyl)guanidine]: less than 300 nM.

Consider `CN1CCC(OC(c2cccc(OCCCCN3CCCCC3)c2)c2nc3ccccc3[nH]2)CC1` (stereo not shown) [Example 333, 2-{(1-methylpiperidin-4-yloxy)[3-(4-piperidin-1-yl-butoxy)phenyl]methyl}-1H-benzimidazole], for which the Ki or IC50 activity class was less than 300 nM. The figure for `CN1CCC(OC(c2cccc(SCCCCO)c2)c2nc3ccccc3[nH]2)CC1` (stereo not shown) [Example 248, 4-{3-[(1H-benzimidazol-2-yl)(1-methylpiperidin-4-yloxy)methyl]phenylsulfanyl}butan-1-ol] is less than 300 nM; for `COc1ccc(C(OC2CCN(C)CC2)c2nc3ccccc3s2)cc1` (stereo not shown) [Example 14, 2-[(4-methoxyphenyl)(1-methylpiperidin-4-yloxy)methyl]benzothiazole] it is less than 1000 nM.
